Test results as given in patent US4371537A, “Sulfur-substituted phenoxypyridines having antiviral activity” (The Dow Chemical Company, priority 1981, dated 1983).
In brackets after ≈: the same amount, converted by molar mass.

Legend:
[1] = Cytotoxicity in tissue culture testing (HeLa monolayers); assay type: cell-based; conditions: human; HeLa cells; observed at 48 and 72 hours post-treatment; read-out: Cytotoxicity: concentration of the compound found to be toxic to the cell
Protocol: (§1) Monolayered HeLa cells in 16 millimeter (mm) tissue culture dishes were treated with 1 ml of culture medium (Eagles medium supplemented with fetal calf serum) containing subject compound at an appropriate concentration or containing no compound at all. Culture media such as those described herein are more fully described in standard texts, as for example, Kuchler's Biochemical Methods in Cell Culture and Virology, Dowden, Hutchinson and Ross, Inc., Stroudsberg, PA (1977). Following treatment, cells were challenged with 0.05 ml of rhinovirus type 1A (RV-1A), rhinovirus type 2 (RV-2) or Coxsackie A21 virus (Cox A21) in culture medium. Some of the compounds were also tested against rhinovirus type 5 (RV-5), rhinovirus type 8 (RV-8) or rhinovirus type 64 (RV-64). Cell controls received no viruses.
^1 Cytotoxicity figures represent the concentration of the compound, […]

[2] = system: Cox A21; assay: Single Oral Dose test in mice challenged IP with Cox A21; assay type: in vivo, Swiss male mice; conditions: 600 mg/kg P.O. 3 h after IP challenge; >3.84 significant (95% confidence level)
Protocol: In addition, some of the compounds were tested in animals utilizing the following procedure, hereinafter referred to as the "Single Oral Dose" test. Swiss male mice, 8-12 grams in weight were challenged intraperitoneally (IP) with 0.2 ml of a normally lethal dose, i.e., a virus dose sufficient to cause […].80-100% mortality in infected animals within 10 days of challenge of Cox A21, in phosphate buffered saline containing 1% heat inactivated fetal calf serum. Three hours later mice were treated orally (P.O.) with 0.2 ml of compound suspended in 0.5% hydroxypropyl methylcellulose (Methocel) or with 0.2 ml of 0.5% Methocel containing no compound. […] Mice were observed daily for 7-10 days post-challenge and deaths recorded. A modified Mantel-Haenzel combined chi-square procedure was used to determine significant difference between virus control and treated groups. Chi-square values greater than 3.84 are considered significant (95% confidence level) in this test.

[3] = system: rhinovirus type 1A (RV-1A); assay: Tissue culture testing, rhinovirus type 1A in HeLa cells; assay type: cell-based; conditions: Enterovirus, 48 and 72 hours, NA = not active at the standard test conditions, read-out: RV-1A: lowest concentration of the compound necessary to cause a 50 percent reduction in cytopathic effect
Protocol: as §1
(§2) ^2 Lowest concentration of the compound (μg/ml) necessary to cause

[4] = system: rhinovirus type 5 (RV-5); assay: Tissue culture testing, rhinovirus type 5 in HeLa cells; assay type: cell-based; conditions: Enterovirus, 48 and 72 hours, NA = not active at the standard test conditions, read-out: RV-5: lowest concentration of the compound necessary to cause a 50 percent reduction in cytopathic effect
Protocol: as §1, §2

[5] = system: rhinovirus type 2 (RV-2); assay: Tissue culture testing, rhinovirus type 2 in HeLa cells; assay type: cell-based; conditions: Enterovirus, 48 and 72 hours, NA = not active at the standard test conditions, read-out: RV-2: lowest concentration of the compound necessary to cause a 50 percent reduction in cytopathic effect
Protocol: as §1, §2

[6] = system: rhinovirus type 8 (RV-8); assay: Tissue culture testing, rhinovirus type 8 in HeLa cells; assay type: cell-based; conditions: Enterovirus, 48 and 72 hours, NA = not active at the standard test conditions, read-out: RV-8: lowest concentration of the compound necessary to cause a 50 percent reduction in cytopathic effect
Protocol: as §1, §2

[7] = system: rhinovirus type 64 (RV-64); assay: Tissue culture testing, rhinovirus type 64 in HeLa cells; assay type: cell-based; conditions: Enterovirus, 48 and 72 hours, NA = not active at the standard test conditions, read-out: RV-64: lowest concentration of the compound necessary to cause a 50 percent reduction in cytopathic effect
Protocol: as §1, §2

[8] = system: Coxsackie A21 virus; assay: Continuous Oral Feeding test in mice challenged IP with Coxsackie A21 virus; assay type: in vivo; conditions: po, 0.06 % in diet, 240 h
Protocol: Some of the compounds were also tested in animals utilizing the following procedure, hereainafter referred to as the "Continuous Oral Feeding" test. Coxsackie A21 virus grown on HeLa cells was administered at a concentration that produces 80 to 100% deaths in mice weighing 8 to 12 grams within 10 days, when the mice are injected (IP) with 0.2 ml of virus preparation. Mice were placed on diets containing test compound dispersed in plain commercially available rodent mash chow at a concentration of 0.06% (weight percent) on day 0. On day 1 the mice were challenged with the virus preparation, 0.2 ml/mouse, (IP). Deaths in both control and experimental groups were recorded for the 10 days and the results analyzed by a chi-square (.chi.^2) test. Chi-square values greater than 3.84 indicate the compound is active (95% confidence level).

[9] = system: Coxsackie A21 virus (Cox A21); assay: Tissue culture testing, Coxsackie A21 virus in HeLa cells; assay type: cell-based; conditions: 48 and 72 hours, NA = not active at the standard test conditions, read-out: Cox A21: lowest concentration of the compound necessary to cause a 50 percent reduction in cytopathic effect
Protocol: as §1, §2

SMILES	MCC [1] [µg/mL]	Single Oral Dose X^2 (chi-square, deaths vs virus control) [2]	EC50 [3] [µg/mL]	EC50 [4] [µg/mL]	EC50 [5] [µg/mL]	EC50 [6] [µg/mL]	EC50 [7] [µg/mL]	Continuous Oral Feeding X^2 (chi-square, deaths vs control) [8]	EC50 [9] [µg/mL]
CS(=O)(=O)c1ccc(Oc2ccc(Br)cc2)nc1 [Example 29, 2-(4-bromophenoxy)-5-(methylsulfonyl)pyridine]	50	5.275	0.625 (≈ 1.9 µM)	25 (≈ 76.2 µM)	0.625 (≈ 1.9 µM)	6.25 (≈ 19 µM)	0.625 (≈ 1.9 µM)	20.885	5 (≈ 15.2 µM)
CS(=O)(=O)c1ccc(Oc2ccc(C#N)cc2)nc1 [Example 30, 4-((5-(methylsulfonyl)-2-pyridinyl)oxy)benzonitrile]	> 100	30.960	50 (≈ 182 µM)	50 (≈ 182 µM)	50 (≈ 182 µM)	25 (≈ 91.1 µM)	25 (≈ 91.1 µM)	24.144	6.25 (≈ 22.8 µM)
